How the values were obtained:
[1] = Cu^+ binding by 1H NMR titration; settings: 1H NMR titration with Cu(MeCN)4BF4, CD3CN/CDCl3 4/1, 298 K
Protocol: Binding abilities and complexation constants of the examples of calix[4]arenes of the present invention and the comparative examples with Cu^+ were evaluated by ^1H NMR titrations at 298 K using copper(I)tetrakis(acetronitrile)tetrafluoroborate.
For example, for each separate calix[4]arene a stock solution of the tested calix[4]arene was prepared in a CD3CN/CDCl3, 4/1 mixture. Using this stock solution, a Cu(MeCN)4BF4 solution was prepared and added by steps of 0.25 equivalent of copper(I) up until 1 equivalent and then by steps of 0.5 equivalent until a total of at least 2 equivalents. ^1H NMR spectra were recorded at a 400 MHz spectrometer at 298 K for the stock solutions of the calix[4]arenes and after each addition of Cu(MeCN)4BF4.
Calix[4]arenes for which a gradual change of the chemical shifts of the ^1H NMR signals (>0.1 ppm for at least one of the signals) was observed upon addition of up to 4-5 equivalents of Cu(MeCN)4BF4 were considered to show weak binding.

[2] = Cu^+ transport into liposomes with encapsulated BCS; settings: POPC/cholesterol 7:3 LUVs, calix[4]arene to lipid 1:1000, 50 μM copper gradient, F/F0 after 600 s
Protocol: The ability of the examples of calix[4]arenes of the invention and the comparative examples to be delivered into a lipidic bilayer membrane of a liposome from a solution and their capacity to then act as a transporter of Cu^+ was evaluated using bathocuproine disulphonate (hereafter abbreviated “BCS”) encapsulated in large unilamellar vesicles (LUVs, also referred to as liposomes) composed of 1-palmitoyl-2-oleoyl-sn-glycero-3-phosphocholine and cholesterol in a 7:3 ratio.
BCS is a fluorescent water soluble phenantroline derivative that can be used as fluorescent dye for the sensing of Cu^+ through the formation of a non-fluorescent 2:1 complex.
Stock solution of lipids were prepared using deacidified CHCl3 and stored in a freezer. CHCl3 was deacidified by passing through activated basic alumina. The lipids used to prepare the liposomes were 2-oleoyl-1-palmitoyl-sn-glycero-3-phosphocholine (POPC), (purity ≥99%) and cholesterol (purity of 95%). 50 mM sodium phosphate buffer were prepared with Millipore water at pH 7 (±0.1) by mixing the solution of the mono- and the di-protonated phosphate salts. The solution of the dye (BCS) was prepared at 0.5 mM concentration in phosphate buffer.
The lipids solutions were mixed in different ratios in a 5 mL round bottom flask. The POPC/cholesterol molar ratio was 7:3 in all experiments. The total amount of lipids per batch varied depending on the amount of liposomes solution required for the experiment. After mixing the lipid solutions in a round bottom flask, the chloroform was evaporated under a gentle air flow and the resulting lipid film was dried at high vacuum for at least an hour. 500 μL of the BCS solution in phosphate buffer and a magnetic stir bar were added to the flask. The flask was then sonicated for 30 seconds and placed under magnetic agitation for at least an hour. The solution was frozen with liquid nitrogen and heated back to room temperature with warm water ten times to form large unilamellar vesicles (LUVs). The liposome solution was extruded 29 times, using an extrusion kit equipped with a membrane with 200 nm pores. Subsequently, the solution was eluted with the buffer solution used for the experiment through a size exclusion column (Sephadex G-25) to remove the external BCS and then diluted with phosphate buffer to obtain a concentration of 0.4 mM in lipids.
Solutions of the calix[4]arenes were prepared at a concentration of 0.24 mM in DMSO and 5 μL of the solution was added 2 minutes before each transport measurement.
Alternatively, calix[4]arenes were pre-incorporated by combining the calix[4]arene (dissolved in chloroform) with the lipids prior to the evaporation of the chloroform to obtain a lipid film. The concentrations and volumes were chosen to obtain a calix[4]arene to lipid of 1:1000.
Fluorescence measurements were performed with a Horiba FluoroMax 4 spectrometer using a 4-faced quartz cuvette (10 mm×10 mm). For the Cu^+ transport assay, the excitation was set at 278 nm and emission was recorded at 393 nm. These values correspond to the excitation and emission maxima of BCS encapsulated inside LUVs.
The Cu^+ solutions added to the liposomes were obtained by dissolving Cu(MeCN)4BF4 in MeCN at 15.25 mM concentration. The copper solution was then diluted by a factor 5 in a phosphate buffer during the first 30 seconds of the experiment to reach a copper concentration of 3.05 mM. 50 μL of the diluted copper solution was added to 3 mL of liposomes, resulting in a copper gradient of 50 μM. The fluorescence level was monitored for 600 seconds after the addition of the copper solution.
For each run the initial plateau and the initial vertical drop (due to the binding of the exterior dye with Cu^+ and the dilution, 1-4 seconds after the addition) were removed. Then the signal was normalised by dividing the fluorescence values (F) by the value at t=0 second (F0). […]

[3] = tested on: H322 lung carcinoma cells; experiment: MTS cytotoxicity assay on H322; format: cell-based; settings: NCI-H322; H322, 72 hours of treatment
Protocol: H322 lung carcinoma cells were seeded in 96-well plates together with the calix[4]arene of the formula (2). Cells were grown in RPMI-1640 supplemented with GlutaMAX™ (Gibco™) and fetal calf serum (FCS, 10%) and treated with a broad range of concentrations of the calix[4]arene of the formula (2). After 72 hours of treatment, the cytotoxicity was measured by means of the IC50 value, using the kit “CellTiter 96R AQuous One Solution Cell Proliferation Assay (MTS)” from Promega™. Following 30 minutes of incubation with the MTS reagent, the endpoint measurements were done in triplicate at 485 nm, using a fluorescence plate reader.
H322 lung carcinoma cells were seeded in 96-well plates together with the compound of the 2nd comparative example of the formula (XI). Cells were grown in RPMI-1640 supplemented with GlutaMAX™ (Gibco™) and fetal calf serum (FCS, 10%) and treated with a broad range of concentrations of the 2nd comparative example of the formula (XI). After 72 hours of treatment, the cytotoxicity was measured by means of the IC50 value, using the kit “CellTiter 96R AQuous One Solution Cell Proliferation Assay (MTS)” from Promega™. Following 30 minutes of incubation with the MTS reagent, the endpoint measurements were done in triplicate at 485 nm, using a fluorescence plate reader.
H322 lung carcinoma cells were seeded in 96-well plates together with the 1st comparative example of the formula (X). Cells were grown in RPMI-1640 supplemented with GlutaMAX™ (Gibco™) and fetal calf serum (FCS, 10%) and treated with a broad range of concentrations of the compound of the formula (X). After 72 hours of treatment, the cytotoxicity was measured by means of the IC50 value, using the kit “CellTiter 96R AQuous One Solution Cell Proliferation Assay (MTS)” from Promega™. Following 30 minutes of incubation with the MTS reagent, the endpoint measurements were done in triplicate at 485 nm, using a fluorescence plate reader.
H322 lung carcinoma cells were seeded in 96-well plates together with the tested calix[4]arenes. Cells were grown in RPMI-1640 supplemented with GlutaMAX™ (Gibco™) and fetal calf serum (FCS, 10%) and treated with a broad range of concentrations of the tested calix[4]arenes. After 72 hours of treatment, the cytotoxicity was measured by means of the IC50 value, using the kit “CellTiter 96R AQuous One Solution Cell Proliferation Assay (MTS)” from Promega™. Following 30 minutes of incubation with the MTS reagent, the endpoint measurements were done in triplicate at 485 nm, using a fluorescence plate reader.

[4] = tested on: Hepatocellular carcinoma (HepG2/C3A) cells; experiment: MTT cytotoxicity assay (DL50); format: cell-based; settings: 24 hours of incubation
Protocol: Cytotoxicity was evaluated using the MTT assay. 1.10^4 cells per well were seeded in a flat-bottom 96-well plate and were incubated for 48 hours at 37° C. with 5% CO2 before addition of the different calix[4]arenes at concentrations up to 200 μM. In all experiments, each condition was performed in triplicate in the plate. Besides, each experiment was done three times independently. After 24 hours of incubation in presence of the compounds, medium was discarded, cells were rinsed with PBS and 100 μL of medium containing 0.5 mg/mL of MTT was added to each well. After 30 minutes of incubation at 37° C., MTT solution was discarded and formazan crystals formed were dissolved in 150 μL of 4 mM HCl, 0.1% NP40 in isopropanol. The absorbance in the wells were read in a microplate reader (Tecan microplate reader-550) at 570 nm.

[5] = tested on: PC9 human lung cancer cells; experiment: MTS cytotoxicity assay, combination with CuCl2, PC9; settings: 72 hours
Protocol: PC9 human lung cancer cells were seeded in 96-well plates together with the calix[4]arene of the formula (2) and CuCl2. Cells were grown in RPMI-1640 supplemented with GlutaMAX™ (Gibco™) and fetal calf serum (FCS, 10%) treated with a broad range of concentrations of the calix[4]arene of the formula (2) or/and CuCl2 from Merck. After 72 hours of treatment, the cytotoxicity was measured by means of the IC50 value, using the kit “CellTiter 96R AQuous One Solution Cell Proliferation Assay (MTS)” from Promega™. Following 30 minutes of incubation with the MTS reagent, the endpoint measurements were done in triplicate at 485 nm, using a fluorescence plate reader.

[6] = tested on: H322 lung carcinoma cells; experiment: MTS cytotoxicity assay, combination with CuCl2, H322; settings: 72 hours
Protocol: H322 lung carcinoma cells were seeded in 96-well plates together with the calix[4]arene of the formula (2) and CuCl2. Cells were grown in RPMI-1640 supplemented with GlutaMAX™ (Gibco™) and fetal calf serum (FCS, 10%) treated with a broad range of concentrations of the calix[4]arene of the formula (2) or/and CuCl2 from Merck. After 72 hours of treatment, the cytotoxicity was measured by means of the IC50 value, using the kit “CellTiter 96R AQuous One Solution Cell Proliferation Assay (MTS)” from Promega™ Following 30 minutes of incubation with the MTS reagent, the endpoint measurements were done in triplicate at 485 nm, using a fluorescence plate reader.

[7] = tested on: A549 human lung cancer cells; experiment: MTS cytotoxicity assay, combination with CuCl2, A549; settings: 72 hours
Protocol: A549 human lung cancer cells were seeded in 96-well plates together with the calix[4]arene of the formula (2) and CuCl2. Cells were grown in RPMI-1640 supplemented with GlutaMAX™ (Gibco™) and fetal calf serum (FCS, 10%) treated with a broad range of concentrations of the calix[4]arene of the formula (2) or/and CuCl2 from Merck. After 72 hours of treatment, the cytotoxicity was measured by means of the IC50 value, using the kit “CellTiter 96R AQuous One Solution Cell Proliferation Assay (MTS)” from Promega™. Following 30 minutes of incubation with the MTS reagent, the endpoint measurements were done in triplicate at 485 nm, using a fluorescence plate reader.

SMILES: C=CCOc1c2cccc1Cc1cccc(c1OCc1nccn1C)Cc1cccc(c1OCC=C)Cc1cccc(c1OCc1nccn1C)C2 [(3)]
- Cu^+ binding [1]: Strong binding (means an affinity constant (Ka) equal or greater than 10^5 M^−1)
- Cu^+ transport [2]: Yes (means that a significant decrease of the fluorescence of encapsulated BCS was observed upon addition of Cu^+ to the liposomes (F/F0<0.65 after 600 s))
- IC50 [3]: 5 µM
- IC50 [4]: 4.5 µM

SMILES: CCOC(=O)COc1c2cccc1Cc1cccc(c1OCc1nccn1C)Cc1cccc(c1OCC(=O)OCC)Cc1cccc(c1OCc1nccn1C)C2 [(4)]
- Cu^+ binding [1]: Strong binding (means an affinity constant (Ka) equal or greater than 10^5 M^−1)
- Cu^+ transport [2]: Yes (means that a significant decrease of the fluorescence of encapsulated BCS was observed upon addition of Cu^+ to the liposomes (F/F0<0.65 after 600 s))
- IC50 [3]: 6 µM
- IC50 [4]: 3.1 µM

SMILES: COc1c2cccc1Cc1cccc(c1OCc1nccn1C)Cc1cccc(c1OC)Cc1cccc(c1OCc1nccn1C)C2 [(5)]
- Cu^+ binding [1]: Strong binding (means an affinity constant (Ka) equal or greater than 10^5 M^−1)
- Cu^+ transport [2]: Yes (means that a significant decrease of the fluorescence of encapsulated BCS was observed upon addition of Cu^+ to the liposomes (F/F0<0.65 after 600 s))
- IC50 [3]: > 10 µM
- IC50 [4]: 23 µM

SMILES: CCCOc1c2cccc1Cc1cccc(c1OCc1nc3ccccc3n1C)Cc1cccc(c1OCCC)Cc1cccc(c1OCc1nc3ccccc3n1C)C2 [(8)]
- Cu^+ binding [1]: Strong binding (means an affinity constant (Ka) equal or greater than 10^5 M^−1)
- Cu^+ transport [2]: Yes (means that a significant decrease of the fluorescence of encapsulated BCS was observed upon addition of Cu^+ to the liposomes (F/F0<0.65 after 600 s))
- IC50 [4]: 128 µM

SMILES: CCCOc1c2cccc1Cc1cccc(c1OCc1ncco1)Cc1cccc(c1OCCC)Cc1cccc(c1OCc1ncco1)C2 [(9)]
- Cu^+ binding [1]: Weak binding (means a change of the chemical shifts of the ^1H NMR signals (>0.1 ppm for at least one of the signals) is observed upon addition of up to 4-5 equivalents of Cu(MeCN)4BF4)
- Cu^+ transport [2]: Yes (means that a significant decrease of the fluorescence of encapsulated BCS was observed upon addition of Cu^+ to the liposomes (F/F0<0.65 after 600 s))
- IC50 [4]: 70 µM

SMILES: CCCOc1c2cccc1Cc1cccc(c1OCc1nccs1)Cc1cccc(c1OCCC)Cc1cccc(c1OCc1nccs1)C2 [(10)]
- Cu^+ binding [1]: Weak binding (means a change of the chemical shifts of the ^1H NMR signals (>0.1 ppm for at least one of the signals) is observed upon addition of up to 4-5 equivalents of Cu(MeCN)4BF4)
- Cu^+ transport [2]: Yes (means that a significant decrease of the fluorescence of encapsulated BCS was observed upon addition of Cu^+ to the liposomes (F/F0<0.65 after 600 s))

SMILES: CCCOc1c2cccc1Cc1cccc(c1OCc1ccccn1)Cc1cccc(c1OCCC)Cc1cccc(c1OCc1ccccn1)C2 [(38)]
- Cu^+ binding [1]: Strong binding (means an affinity constant (Ka) equal or greater than 10^5 M^−1)
- Cu^+ transport [2]: Yes (means that a significant decrease of the fluorescence of encapsulated BCS was observed upon addition of Cu^+ to the liposomes (F/F0<0.65 after 600 s))

SMILES: Oc1c(I)cc(Cl)c2cccnc12 [Clioquinol, clioquinol, reference compound]
- IC50 [4]: 67 µM

SMILES: [Cl][Cu][Cl] [Cu^2+, CuCl2]
- percentage of cell viability ([5]; PC9, Cu^2+ 1 μM alone ((2) 0 μM)): 90.9%
- percentage of cell viability ([5]; PC9, Cu^2+ 5 μM alone ((2) 0 μM)): 87.1%
- percentage of cell viability ([5]; PC9, Cu^2+ 10 μM alone ((2) 0 μM)): 81.0%
- percentage of cell viability ([5]; PC9, Cu^2+ 25 μM alone ((2) 0 μM)): 77.1%
- percentage of cell viability ([5]; PC9, Cu^2+ 50 μM alone ((2) 0 μM)): 68.8%
- percentage of cell viability ([6]; H322, Cu^2+ 1 μM alone ((2) 0 μM)): 87.2%
- percentage of cell viability ([6]; H322, Cu^2+ 5 μM alone ((2) 0 μM)): 83.3%
- percentage of cell viability ([6]; H322, Cu^2+ 10 μM alone ((2) 0 μM)): 79.5%
- percentage of cell viability ([6]; H322, Cu^2+ 25 μM alone ((2) 0 μM)): 72.9%
- percentage of cell viability ([6]; H322, Cu^2+ 50 μM alone ((2) 0 μM)): 60.6%
- percentage of cell viability ([7]; A549, Cu^2+ 1 μM alone ((2) 0 μM)): 89.4%
- percentage of cell viability ([7]; A549, Cu^2+ 5 μM alone ((2) 0 μM)): 88.1%
- percentage of cell viability ([7]; A549, Cu^2+ 10 μM alone ((2) 0 μM)): 84.6%
- percentage of cell viability ([7]; A549, Cu^2+ 25 μM alone ((2) 0 μM)): 85.6%
- percentage of cell viability ([7]; A549, Cu^2+ 50 μM alone ((2) 0 μM)): 79.4%

SMILES: CCCOc1c2cccc1Cc1cccc(c1OCc1nccn1C)Cc1cccc(c1OCCC)Cc1cccc(c1OCc1nccn1C)C2 [formula (2)]
- IC50 [4]: 3.1 µM

From patent US20260015339A1, “CALIX[4]ARENES WITH HIGH ANTICANCER ACTIVITY” (UNIVERSITE GRENOBLE ALPES, priority 2023, published 2026)
